According to patent publication US20230151025A1, “SUBSTITUTED THIAZOLOPYRIDINES, SALTS THEREOF AND THEIR USE AS HERBICIDALLY ACTIVE SUBSTANCES” (Bayer Aktiengesellschaft, priority 2020, published 2023):

Columns and labels:
Type in all cases: in vivo
[1] = system: Amaranthus retroflexus (AMARE); assay: Herbicidal post-emergence action (B), 1280 g/ha; details: rated visually after about 3 weeks vs untreated controls
From the text: (§1) ABUTH: Abutilon theophrasti AGSTE: Agrostis tenuis ALOMY: Alopecurus myosuroides AMARE Amaranthus retroflexus DIGSA: Digitaria sanguinalis ECHCG: Echinochloa crus-galli KCHSC: Kochia scoparia LOLRI: Lolium rigidum MATIN: Matricaria inodora POAAN: Poa annua POLCO: Polygonum convolvulus SETVI: Setaria viridis STEME: Stellaria media VERPE: Veronica persica VIOTR: Viola tricolor
(§2) Seeds of mono- and dicotyledonous weed plants were placed in plastic pots in sandy loam soil (doubly sown with in each case one species of mono- or dicotyledonous weed plants per pot), covered with soil and cultivated in a greenhouse under controlled growth conditions. 2 to 3 weeks after sowing, the test plants were treated at the one-leaf stage. The compounds of the invention, formulated in the form of wettable powders (WP) or as emulsion concentrates (EC), were applied onto the green parts of the plants as aqueous suspension or emulsion with addition of 0.5% additive at a water application rate of 600 liters per hectare (converted). After the test plants had been kept in the greenhouse under optimum growth conditions for about 3 weeks, the activity of the preparations was rated visually in comparison to untreated controls. For example, 100% activity=the plants have died, 0% activity=like control plants.
(§3) Tables B1 to B12, below, show the effects of selected compounds of the general formula (I) according to table 1 on various harmful plants and an application rate corresponding to 1280 g/ha obtained by the experimental procedure mentioned above.

[2] = system: Abutilon theophrasti (ABUTH); assay: Herbicidal post-emergence action (B), 1280 g/ha; details: rated visually after about 3 weeks vs untreated controls
From the text: as §1, §2, §3

[3] = system: Kochia scoparia (KCHSC; Bassia scoparia); assay: Herbicidal post-emergence action (B), 1280 g/ha
From the text: as §1, §2, §3

Veronica persica (VERPE) [4] = assay: Herbicidal post-emergence action (B), 1280 g/ha
From the text: as §1, §2, §3

Poa annua (POAAN) [5] = assay: Herbicidal pre-emergence action (A), 1280 g/ha; details: visual grading after ca. 3 weeks vs untreated controls, 100% = plants have died off, 0% = as control plants
From the text: as §1
(§4) Seeds of mono- and dicotyledonous weed plants were sown in plastic pots (double sowings with one species of mono- and one species of dicotyledonous weed plants per pot), in sandy loam, and covered with soil. The compounds according to the invention, formulated in the form of wettable powders (WP) or as emulsifiable concentrates (EC), were applied to the surface of the covering soil as aqueous suspension or emulsion, with the addition of 0.5% of an additive, at an application rate of 600 l of water per hectare (converted). Following treatment, the pots were placed in a greenhouse and kept under optimum growth conditions for the test plants. The visual grading of the damage to the test plants was carried out after ca. 3 weeks in comparison to untreated controls (herbicidal effect in percent (%): 100% effect=plants have died off, 0% effect=as control plants).
(§5) Tables A1 to A12, below, show the effects of selected compounds of the general formula (I) according to table 1 on various harmful plants and an application rate corresponding to 1280 g/ha obtained by the experimental procedure mentioned above.

Stellaria media (STEME) [6] = assay: Herbicidal post-emergence action (B), 1280 g/ha
From the text: as §1, §2, §3

[7] = system: Amaranthus retroflexus (AMARE); assay: Herbicidal pre-emergence action (A), 1280 g/ha; details: visual grading after ca. 3 weeks vs untreated controls
From the text: as §1, §4, §5

Setaria viridis (SETVI) [8] = assay: Herbicidal pre-emergence action (A), 1280 g/ha; details: visual grading after ca. 3 weeks vs untreated controls
From the text: as §1, §4, §5

[9] = system: Alopecurus myosuroides (ALOMY); assay: Herbicidal post-emergence action (B), 1280 g/ha; details: rated visually after about 3 weeks vs untreated controls
From the text: as §1, §2, §3

[10] = system: Kochia scoparia (KCHSC; Bassia scoparia); assay: Herbicidal pre-emergence action (A), 1280 g/ha; details: visual grading after ca. 3 weeks vs untreated controls
From the text: as §1, §4, §5

Stellaria media (STEME) [11] = assay: Herbicidal pre-emergence action (A), 1280 g/ha; details: visual grading after ca. 3 weeks vs untreated controls
From the text: as §1, §4, §5

[12] = system: Digitaria sanguinalis (DIGSA); assay: Herbicidal pre-emergence action (A), 1280 g/ha; details: visual grading after ca. 3 weeks vs untreated controls, 100% = plants have died off, 0% = as control plants
From the text: as §1, §4, §5

Poa annua (POAAN) [13] = assay: Herbicidal post-emergence action (B), 1280 g/ha; details: rated visually after about 3 weeks vs untreated controls
From the text: as §1, §2, §3

[14] = system: Echinochloa crus-galli (ECHCG); assay: Herbicidal post-emergence action (B), 1280 g/ha; details: rated visually after about 3 weeks vs untreated controls
From the text: as §1, §2, §3

Setaria viridis (SETVI) [15] = assay: Herbicidal post-emergence action (B), 1280 g/ha; details: rated visually after about 3 weeks vs untreated controls
From the text: as §1, §2, §3

[16] = system: Matricaria inodora (MATIN); assay: Herbicidal pre-emergence action (A), 1280 g/ha; details: visual grading after ca. 3 weeks vs untreated controls
From the text: as §1, §4, §5

Lolium rigidum (LOLRI) = assay: Herbicidal pre-emergence action (A), 1280 g/ha; details: visual grading after ca. 3 weeks vs untreated controls, 100% = plants have died off, 0% = as control plants
From the text: as §1, §4, §5

[17] = system: Echinochloa crus-galli (ECHCG); assay: Herbicidal pre-emergence action (A), 1280 g/ha; details: visual grading after ca. 3 weeks vs untreated controls, 100% = plants have died off, 0% = as control plants
From the text: as §1, §4, §5

Veronica persica (VERPE) [18] = assay: Herbicidal pre-emergence action (A), 1280 g/ha; details: visual grading after ca. 3 weeks vs untreated controls
From the text: as §1, §4, §5

[19] = system: Alopecurus myosuroides (ALOMY); assay: Herbicidal pre-emergence action (A), 1280 g/ha; details: visual grading after ca. 3 weeks vs untreated controls, 100% = plants have died off, 0% = as control plants
From the text: as §1, §4, §5

SMILES | herbicidal activity AMARE [1] | herbicidal activity ABUTH [2] | herbicidal effect KCHSC [3] | herbicidal effect VERPE (Veronica persica (VERPE) [4]) | POAAN, herbicidal effect in percent (%) (Poa annua (POAAN) [5]) | herbicidal effect STEME (Stellaria media (STEME) [6]) | herbicidal effect AMARE [7] | herbicidal effect SETVI (Setaria viridis (SETVI) [8]) | herbicidal activity ALOMY [9] | herbicidal effect KCHSC [10] | herbicidal effect STEME (Stellaria media (STEME) [11]) | DIGSA, herbicidal effect in percent (%) [12] | herbicidal activity POAAN (Poa annua (POAAN) [13]) | herbicidal activity ECHCG [14] | herbicidal activity SETVI (Setaria viridis (SETVI) [15]) | herbicidal effect MATIN [16] | LOLRI, herbicidal effect in percent (%) (Lolium rigidum (LOLRI)) | ECHCG, herbicidal effect in percent (%) [17] | herbicidal effect VERPE (Veronica persica (VERPE) [18]) | ALOMY, herbicidal effect in percent (%) [19]
COC(=O)c1nc2nc(-c3ccccc3F)c(Br)cc2s1 [Example I-054, methyl 6-bromo-5-(2-fluorophenyl)thiazolo[4,5-b]pyridine-2-carboxylate] | 100% | 90% | 90% | 90% | 100% | – | – | – | – | – | – | – | – | – | – | – | – | – | – | –
Cc1c(Br)c(-c2ccccc2F)nc2ncsc12 [Example I-186] | 100% | 90% | – | 90% | – | 90% | – | – | – | – | – | – | – | – | – | – | – | – | – | –
Cc1cc2scnc2nc1-c1cccnc1C [Example I-130] | – | 90% | 90% | 90% | 100% | – | 90% | 100% | – | – | – | – | – | – | – | – | – | – | – | –
Fc1ccccc1-c1nc2nc(Cl)sc2cc1Br [Example I-053, 6-bromo-2-chloro-5-(2-fluorophenyl)thiazolo[4,5-b]pyridine] | – | 90% | 90% | – | 100% | 100% | – | – | 100% | 90% | 100% | 100% | – | – | – | – | – | – | – | –
CCc1cc2sc(S(C)(=O)=O)nc2nc1-c1ccccc1F [Example I-059] | 100% | 100% | 90% | 100% | 100% | – | – | 100% | – | 90% | – | 100% | – | – | – | – | – | – | – | –
Fc1cc(F)c(-c2nc3ncsc3cc2Cl)c(F)c1 [Example I-035] | 100% | 90% | 90% | 90% | 100% | – | 90% | 100% | 90% | 90% | 90% | – | 90% | 90% | 90% | 90% | 100% | 100% | 90% | 90%
Cc1sccc1-c1ccc2scnc2n1 [Example I-133] | 90% | 90% | – | – | 90% | – | 90% | 100% | – | 90% | 90% | – | 100% | 90% | – | – | 100% | 100% | 90% | 100%
Cc1cc2sc(S)nc2nc1-c1ccccc1Cl [Example I-169] | 90% | 100% | 90% | 90% | 100% | – | 90% | 90% | – | 90% | – | – | – | – | – | – | – | 90% | – | –
CCc1cc2scnc2nc1C12CCCCC1O2 (stereo not shown) [Example I-152] | 100% | 90% | 90% | 100% | 100% | – | 90% | 100% | 100% | 100% | 90% | 100% | 100% | – | – | 90% | 100% | 100% | 90% | –
Cc1nc2nc(-c3ccccc3F)c(C)cc2s1 [Example I-001] | 90% | – | – | – | – | – | – | 100% | – | – | 90% | – | – | – | 90% | 90% | – | 100% | – | –
N#Cc1nc2nc(-c3ccccc3F)c(Br)cc2s1 [Example I-070, 6-bromo-5-(2-fluorophenyl)thiazolo[4,5-b]pyridine-2-carbonitrile] | 100% | 90% | – | – | – | – | 100% | 100% | – | – | – | – | – | – | – | – | – | – | – | –
Cc1cccc(F)c1-c1nc2ncsc2cc1Br [Example I-088] | 100% | 90% | 100% | 100% | 100% | 100% | 90% | 100% | – | 90% | 90% | – | – | – | 90% | 90% | 100% | 100% | – | 100%
